# Experimental data taken from US10550130B2, “Benzo-thiazolo-imidazole compounds and uses thereof” (KING SAUD UNIVERSITY, priority 2015, dated 2020).
# Assays:
# [1] = tested on: HT-29 colon cancer cells; assay: CD133 expression by flow cytometry; format: cell-based; conditions: 10 μM, 48 h
# Procedure: In a further experiment, HT-29 colon cancer cells were cultured in 6 well plates and treated by KSA-101696 (10 μM) or vehicle for 48 h. Then, cells were collected and stained with a CD133 antibody and analyzed by flow cytometry.
# [2] = tested on: intracellular Notch-1; assay: Immunofluorescence of intracellular Notch-1 in MDA-MB-231 breast cancer cells; format: cell-based; conditions: MDA-MB-231 cells; FIGS. 1B and 1C
# Procedure: MDA-MB-231 breast cancer cells were treated either with vehicle (control) or with 0.01 μM, 0.1 μM, 1 μM or 10 μM final concentration of doxorubicin, taxotere or KSA-101696. Then, the cells were cytospun to glass slides by centrifugation at 800 rpm for 3 min. Slides were then air-dried overnight and 4% formaldehyde fixed for 10 min. For staining, the cell membrane was permeabilized with 0.5% triton-X (Sigma) followed by overnight incubation with primary antibodies (anti-Numb, Abcam) and (anti-intracellular Notch-1, Cell Signalling) at 1:100. Cells were washed and stained with AlexaFluor goat anti-rabbit IgG 488 (Invitrogenat) 1:400 for 30 minutes. 300 nM DAPI (Invitrogen, Carlsbad, Calif., USA) was added for 10 minutes to counterstain the nuclei. Slides were mounted and immunofluorescence was visualized using BD Pathway 855 microscope.
# Numb exerts its functional role on cell fate decisions by antagonizing Notch signaling activities. The molecular mechanisms underlying this relationship appear to rely on the ubiquitination of the membrane bound Notch-1 receptor and the subsequent degradation of its NICD (Notch intracellular domain) following receptor activation.
# [3] = tested on: SP cells of MCF-7 cells; assay: Side population (SP) cell fraction by flow cytometry; format: cell-based; conditions: Homo sapiens, MCF7, 24 h, normal culture conditions, read-out: IC50, SP cell inhibition
# Excerpt: It is known that one of the properties of stem/progenitor cells is their ability to survive under anchorage-independent conditions and generate mammospheres, which are composed of a small number of stem cells. Given that CSCs generally make up for a small minority of the cells within cancer cell populations, the dye DyeCycle Violet was used to isolate SP cells (side population cells; the side population is enriched for stem/progenitor cells), through a BD FACSAria™ cell sorter. Subsequently, the isolated SP cells were used in a Mammosphere Formation Assay. SP cells of MCF-7 and BT-474 formed more mammospheres than non-SP cells (see FIG. 4A).
# Next, the effects of the compound KSA-101696 in SP cells under normal culture conditions was evaluated.
# [4] = tested on: T47D; assay: Annexin V binding by flow cytometry (apoptosis); format: cell-based; conditions: high Numb expression, FIG. 9B
# Procedure: It is known that loss of phospholipid asymmetry of the plasma membrane is an early event of apoptosis. The annexin V binds to negatively charged phospholipids, like phosphatidylserine. During apoptosis, the cells react to annexin V once chromatin condenses but before the plasma membrane loses its ability to exclude propidium iodide (PI).
# Annexin-V staining was performed by using Vybrant Apoptosis Assay Kit #2 (Molecular Probes) following the manufacturer's recommendations. Annexin-V stained cells were analyzed by flow cytometry, measuring the fluorescence emission between 515 nm to 545 nm.
# This experiment was carried out with three breast cancer cell lines: MDA-MB-468, SKBR-3 and T47D. The MDA-MB-468 cell line represents the basal like breast cancer (which is a breast cancer subtype with a more aggressive clinical behavior). The SKBR-3 cell line represents Her-2 overexpressing breast cancer. […] The T47D cell line represents ER/PR positive breast cancer. Unlike MDA-MB-468 cells or SKBR-3 cells, T47D cells are highly differentiated cells and respond very well to hormonal therapy and chemotherapy.
# In a next step, it was investigated whether there was a correlation between Numb protein expression and sensitivity of a cell line to the apoptotic effects of KSA-101696. Apoptotic cells were determined by Annexin-V staining as described in Example 1.
# [5] = Determination of LD50 value
# Procedure: Swiss Webster Albino mice were housed in groups of 2 or 4 in elevated steel wire-mesh cages in a controlled room maintained at a temperature of 22±2° C., relative humidity of 50±10% and a 12 h light-dark cycle. Rodent diet chow (feed) provided by Grain Silos Flour Mills Organization, Riyadh, Saudi Arabia, and tap water for drinking were made available ad lib.
# Male mice were divided into various groups (n=10 animals per group). Each group was administered a different dose of the respective compound via the intraperitoneal (i.p.) route. The dose range used was 100-5000 mg/kg.
# During the observation periods there was a continuous record of any behavioral changes and clinical symptoms that caused by effects on the central and autonomic nervous systems, the respiratory and the cardiovascular systems or any other action on the gastrointestinal tract, the renal systems, eye, skin, skeletal muscles etc.
# During the 72 hour observation period the number of animals that died in every group was recorded. The percentage of death calculated and converted to probits to calculate the LD50 value for each compound in mg/kg. The LD50 value reported in this study provided compounds in their liquid form in the provided concentrations.
# [6] = tested on: MCF-7; assay: Cell proliferation by 3H-thymidine uptake assay; format: cell-based; conditions: Homo sapiens, MCF7, 72 h, read-out: IC50, growth inhibition (3H-thymidine uptake)
# Procedure: (§1) In vitro antitumor activity of the compound was assessed by ^3H-thymidine uptake. The cells were treated and they were about 60% confluent. Cells were seeded at 4×10^3 cells per well in a 96 well plate in DMEM containing 10% FBS for 24 h followed by treatment with control media (0.1% DMSO) or media containing different concentration of the compound incubated for 72 h at 37° C. in 5% CO2. Cells were labelled by addition of ^3H-thymidine (Amersham, Chiltern Hills, London, UK) at 1 μCi/well for 18 h before harvesting. ^3H-thymidine uptake was measured using a 1450 Micro Beta PLUS liquid scintillation counter (Wallac, Waltham, Mass., USA).
# (§2) In another experiment, the in vitro antitumor activity of the compound was assessed by a 3H-thymidine uptake experiment. To this end, cells of the tumor cell lines MCF-7, SKBR3 and MDA-MB-468 were seeded at 4×10^3 cells per well in a 96 well plate in DMEM containing 10% FBS for 24 h followed by treatment with control media (0.1% DMSO) or media containing different concentration of the compound (5 μM, 10 μM, 20 μM, 40 μM or 80 μM final concentration of KSA-101696) and incubated for 72 h at 37° C. in 5% CO2. At about 60% confluency, cells were labelled by addition of 3H-thymidine (Amersham, Chiltern Hills, London, UK) at 1 μCi/well for 18 h before harvesting. 3H-thymidine uptake was measured using a 1450 Micro Beta PLUS liquid scintillation counter (Wallac, Waltham, Mass., USA).
# [7] = tested on: MDA-MB-468; assay: Cell proliferation by 3H-thymidine uptake assay; format: cell-based; conditions: Homo sapiens, 72 h, read-out: IC50, growth inhibition (3H-thymidine uptake)
# Procedure: as §1, §2
# [8] = tested on: SKBR3; assay: Cell proliferation by 3H-thymidine uptake assay; format: cell-based; conditions: Homo sapiens, SK-BR-3, 72 h, read-out: IC50, growth inhibition (3H-thymidine uptake)
# Procedure: as §1, §2
compound,measurement,setting,value
"COc1ccc(-c2csc3nc4ccccc4n23)cc1 [KSA-101696, 3-(4-methoxyphenyl)benzo[4,5]imidazo[2,1-b]thiazole]",expression of colon cancer stem cell marker CD133,[1],inhibition in the expression of the colon cancer stem cell marker CD133
same,concentration inhibiting intracellular Notch-1 by activating Numb expression,[2],0.625 µM
same,IC50,[3],~300 nM
same,apoptosis (Annexin-V) in relation to Numb expression,[4],did not have such effects
same,Therapeutic ratio = LD50/ED50,[5]; intraperitoneal,40
same,LD50 at 72 h,"[5]; male, Swiss Webster Albino, mouse, in vivo, ip",2000 mg/kg
same,IC50,[6],~5 µM
same,IC50,[7],~2500 nM
same,IC50,[8],7.5 µM
